Values joined by “and” are separate entries in the source; they are usually repeats but may differ in a detail not shown here. Equal values may be shown once. Toxic doses and inconclusive results are not listed. Rule for the calls: active = survival T/C of 150% or more; inactive = T/C below 125% in these data.
Tested on: B6C3F1 mice, Lewis lung carcinoma iv, survival T/C
Assay: NCI In Vivo Anticancer Drug Screen. Data for tumor model Lewis Lung Carcinoma (intravenous) in B6C3F1 mice
Details: endpoint: median survival time, schedule: Q01DX009 (ip), higher = longer survival
Description: The antitumor activity of compounds was measured in mice bearing transplantable tumors. Survival or tumor size were measured and the results are expressed as the measurement made in the treated group (T) divided by the measurement made in the vehicle treated control group (C). The tumor model used in this assay is Lewis Lung Carcinoma (intravenous) in B6C3F1 mice

[1] = dose: 12.5 mg/kg/injection, vehicle: saline with Tween-80
[2] = dose: 25.0 mg/kg/injection, vehicle: saline with Tween-80
[3] = dose: 50.0 mg/kg/injection, vehicle: saline with Tween-80
[4] = dose: 100.0 mg/kg/injection, vehicle: saline with Tween-80
[5] = dose: 200.0 mg/kg/injection, vehicle: saline with Tween-80
[6] = dose: 400.0 mg/kg/injection, vehicle: saline with Tween-80
[7] = dose: 25.0 mg/kg/injection, vehicle: saline
[8] = dose: 50.0 mg/kg/injection, vehicle: saline
[9] = dose: 12.5 mg/kg/injection, vehicle: saline
[10] = dose: 3.12 mg/kg/injection, vehicle: saline
[11] = dose: 6.25 mg/kg/injection, vehicle: saline

Measured: T/C

c1ccc([P+](c2ccccc2)(c2ccccc2)c2ccccc2)cc1
inactive: dose: 0.09 mg/kg/injection, vehicle: saline 112 % of control | dose: 0.18 mg/kg/injection, vehicle: saline 112 % of control | dose: 0.37 mg/kg/injection, vehicle: saline 107 % of control | dose: 0.75 mg/kg/injection, vehicle: saline 105 % of control and 112 % of control | dose: 1.5 mg/kg/injection, vehicle: saline 103 % of control and 111 % of control | dose: 3.0 mg/kg/injection, vehicle: saline 95 % of control and 124 % of control | dose: 6.0 mg/kg/injection, vehicle: saline 94 % of control

O=c1[nH]cnc2[nH]ncc12
inactive: dose: 12.5 mg/kg/injection, vehicle: suspension in saline 95 % of control | dose: 25.0 mg/kg/injection, vehicle: suspension in saline 105 % of control | dose: 50.0 mg/kg/injection, vehicle: suspension in saline 95 % of control | dose: 100.0 mg/kg/injection, vehicle: suspension in saline 106 % of control | dose: 200.0 mg/kg/injection, vehicle: suspension in saline 112 % of control | dose: 400.0 mg/kg/injection, vehicle: suspension in saline 120 % of control

CC(=O)OCC1(C)NC(=O)c2ccccc2O1 (configuration not stated)
inactive: [1] 114 % of control | [2] 96 % of control | [3] 100 % of control | [4] 104 % of control | [5] 114 % of control | [6] 100 % of control

C=C(C)C(=NC(C)(C)C)Nc1ccccc1
inactive: dose: 6.25 mg/kg/injection, vehicle: saline with Tween-80 99 % of control | [1] 99 % of control | [2] 90 % of control | [3] 86 % of control | [4] 99 % of control | [5] 90 % of control

CCN(CC)CCOCCO
inactive: dose: 12.0 mg/kg/injection, vehicle: saline 96 % of control | [7] 99 % of control | [8] 99 % of control | dose: 100.0 mg/kg/injection, vehicle: saline 101 % of control

C[n+]1c(-c2cccc(OCCOCCOc3cccc(-c4c5cc(N)ccc5c5ccc(N)cc5[n+]4C)c3)c2)c2cc(N)ccc2c2ccc(N)cc21
inactive: dose: 0.5 mg/kg/injection, vehicle: water 105 % of control | dose: 0.75 mg/kg/injection, vehicle: saline with Tween-80 103 % of control | dose: 1.0 mg/kg/injection, vehicle: water 96 % of control | dose: 1.5 mg/kg/injection, vehicle: saline with Tween-80 102 % of control | dose: 2.0 mg/kg/injection, vehicle: water 100 % of control | dose: 3.0 mg/kg/injection, vehicle: saline with Tween-80 99 % of control | dose: 4.0 mg/kg/injection, vehicle: water 100 % of control and 105 % of control | dose: 6.0 mg/kg/injection, vehicle: saline with Tween-80 108 % of control | dose: 8.0 mg/kg/injection, vehicle: water 105 % of control and 110 % of control | dose: 16.0 mg/kg/injection, vehicle: water 116 % of control

C1OC1C1CO1 (configuration not stated)
inactive: dose: 1.25 mg/kg/injection, vehicle: suspension in saline 101 % of control | dose: 2.5 mg/kg/injection, vehicle: suspension in saline 112 % of control | dose: 5.0 mg/kg/injection, vehicle: suspension in saline 105 % of control | dose: 10.0 mg/kg/injection, vehicle: suspension in saline 99 % of control | dose: 20.0 mg/kg/injection, vehicle: suspension in saline 101 % of control | dose: 40.0 mg/kg/injection, vehicle: suspension in saline 108 % of control

O=C1N(CC2CO2)CCN1CC1CO1 (configuration not stated)
inactive: [9] 114 % of control | [7] 112 % of control | [8] 114 % of control

C[n+]1c(-c2cccc3ccccc23)c2cc(N)ccc2c2ccccc21
inactive: [10] 94 % of control | [11] 90 % of control

C[PH+](C)C.C[PH+](C)C.[Au]
inactive: dose: 0.62 mg/kg/injection, vehicle: saline 97 % of control | dose: 1.25 mg/kg/injection, vehicle: saline 102 % of control | dose: 2.5 mg/kg/injection, vehicle: saline 105 % of control | dose: 10.0 mg/kg/injection, vehicle: saline 109 % of control

c1ccc(P(CCNCCP(c2ccccc2)c2ccccc2)c2ccccc2)cc1
inactive: [2] 104 % of control | [3] 97 % of control

[CH3][Sn]([CH3])([Cl])[S]CCN
inactive: [10] 99 % of control | [11] 105 % of control | [9] 99 % of control | [7] 100 % of control | [8] 96 % of control

C[C@]12CC[C@H](O)CC1=CC[C@@H]1[C@@H]2CC[C@]2(C)C(=O)CC[C@@H]12
inactive: [2] 105 % of control | [3] 100 % of control | [4] 101 % of control | [5] 94 % of control | [6] 99 % of control

C[C@@H]1C[C@@H]([C@H](O)CC2CC(=O)NC(=O)C2)C(=O)[C@@H](C)C1
inactive: [11] 100 % of control | [9] 105 % of control | [7] 102 % of control

CC(C)NC(=O)N(CCCCBr)N=O
inactive: dose: 12.0 mg/kg/injection, vehicle: Klucel (hydroxypropylcellulose) (HPC) 114 % of control | dose: 25.0 mg/kg/injection, vehicle: Klucel (hydroxypropylcellulose) (HPC) 98 % of control | dose: 50.0 mg/kg/injection, vehicle: Klucel (hydroxypropylcellulose) (HPC) 116 % of control

C=C1C(=O)C2=CC1CCC(=O)C1(C)CCC(OC(C)=O)C(C)(C)C1CC2O (configuration not stated)
inactive: dose: 3.75 mg/kg/injection, vehicle: Klucel (hydroxypropylcellulose) (HPC) 93 % of control | dose: 7.5 mg/kg/injection, vehicle: Klucel (hydroxypropylcellulose) (HPC) 110 % of control | dose: 15.0 mg/kg/injection, vehicle: Klucel (hydroxypropylcellulose) (HPC) 98 % of control | dose: 30.0 mg/kg/injection, vehicle: Klucel (hydroxypropylcellulose) (HPC) 96 % of control | dose: 60.0 mg/kg/injection, vehicle: Klucel (hydroxypropylcellulose) (HPC) 100 % of control

O=C(O)[C@H](Cc1ccccc1)N1C(=O)c2ccccc2C1=O
inactive: dose: 3.12 mg/kg/injection, vehicle: DMSO 102 % of control | dose: 6.25 mg/kg/injection, vehicle: DMSO 105 % of control | dose: 12.5 mg/kg/injection, vehicle: DMSO 105 % of control | dose: 25.0 mg/kg/injection, vehicle: DMSO 100 % of control | dose: 50.0 mg/kg/injection, vehicle: DMSO 98 % of control

CNc1cccnc1/C=N/NC(N)=S
inactive: [1] 104 % of control | [2] 122 % of control | [3] 90 % of control

NC(=O)CC(N)C(=O)O (configuration not stated)
inactive: dose: 50.0 mg/kg/injection, vehicle: other 95 % of control | [3] 102 % of control | dose: 100.0 mg/kg/injection, vehicle: other 110 % of control | [4] 96 % of control | dose: 200.0 mg/kg/injection, vehicle: other 97 % of control | [5] 96 % of control | dose: 400.0 mg/kg/injection, vehicle: other 92 % of control | [6] 97 % of control | dose: 800.0 mg/kg/injection, vehicle: other 104 % of control | dose: 800.0 mg/kg/injection, vehicle: saline with Tween-80 100 % of control | dose: 1600.0 mg/kg/injection, vehicle: other 99 % of control | dose: 1600.0 mg/kg/injection, vehicle: saline with Tween-80 96 % of control

Source: PubChem BioAssay AID276 (DTP/NCI, 2004)
